Measured values taken from publication PMC10584170, “Machine learning-based phenotypic imaging to characterise the targetable biology of Plasmodium falciparum male gametocytes for the development of transmission-blocking antimalarials” (PLOS Pathogens, 2023).
Like-named read-outs stand apart in the source and are kept apart here.

Key:
[1] = tested on: P. falciparum female gametocytes; test: P. falciparum Female Gametocyte Activation Assay (PfFGAA); type: cell-based, Plasmodium falciparum
From the text: Fig 1 The activity of TCAMS compound identified in the Pf DGFA screen. (A) 85 molecules were confirmed active in the Pf DGFA. 58 were previously identified in one or more transmission-blocking screens. […] No molecule was identified with >4.7-fold greater activity against female gametocytes. Abbreviations (IC50 = concentration giving 50% inhibition, PbODA = P. berghei Ookinete Development Assay, PfDGFA = P. falciparum Dual Gamete Formation Assay, PfFGAA = P. falciparum Female Gametocyte Activation Assay, PfGCT = P. falciparum Gametocyte Viability ATP Assay).

[2] = tested on: P. falciparum female gametocytes; set-up: method as in Miguel-Blanco et al 2017; conditions: ref Miguel-Blanco et al 2017; read-out: Pf female gametogenesis FGAA IC50; cited from earlier work
[3] = tested on: P. falciparum male gametocytes; test: P. falciparum Dual Gamete Formation Assay (PfDGFA), male readout (exflagellation); type: cell-based, Plasmodium falciparum NF54; conditions: for Selectivity Ratio M: HepG2 Tox50 versus male IC50; for HitlevelM: number of replicates with >50% inhibition in the male readout
How it was run: (§1)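 Male and female gamete formation were quantified by microscopy image analysis following 24 h incubation of mature NF54 gametocytes with compound and activation at 28°C with xanthurenic acid.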

HepG2 cells [4] = conditions: cited from earlier work
[5] = tested on: P. falciparum female gametocytes; test: P. falciparum Dual Gamete Formation Assay (PfDGFA), female readout (Pfs25-positive female gametes); type: cell-based, Plasmodium falciparum NF54; conditions: for Selectivity ratio F: HepG2 Tox50 versus female IC50; for HitlevelF: number of replicates with >50% inhibition in the female readout
How it was run: as §1

HepG2 cells [6] = test: HepG2 cytotoxicity counter-screen; conditions: for Mean TOX: mean of the HepG2 TOX50 values; for Tox50: cytotoxic activity against HepG2 cells
[7] = Mean TOX HepG2 over FGAA IC50, GREEN = >10-fold, RED = <10-fold
[8] = this study, read-out: Pf DGFA IC50 MALE
[9] = this study, read-out: Pf DGFA IC50 FEM
[10] = Plasmodium falciparum, PfDGFA, 24 h incubation with gametocytes before induction, exflagellation readout, read-out: Male IC50
[11] = Plasmodium falciparum, PfDGFA, 24 h incubation with gametocytes before induction, female gamete readout, read-out: Female IC50
[12] = PfDGFA at 2µM, 24h preincubation with gametocytes, average of replicates
[13] = PfDGFA at 2µM, 24h preincubation with gametocytes, replicate R1
[14] = PfDGFA at 2µM, 24h preincubation with gametocytes, replicate R3
[15] = PfDGFA at 2µM, 24h preincubation with gametocytes, replicate R4
[16] = Plasmodium falciparum, 2µM, 24h preincubation with gametocytes, average of replicates, read-out: Average inhibition male (%)
[17] = Plasmodium falciparum, 2µM, 24h preincubation with gametocytes, replicate R1, read-out: % inhibition male (individual replicates) R1
[18] = Plasmodium falciparum, 2µM, 24h preincubation with gametocytes, replicate R2, read-out: % inhibition male (individual replicates) R2
[19] = Plasmodium falciparum, 2µM, 24h preincubation with gametocytes, replicate R3, read-out: % inhibition male (individual replicates) R3
[20] = Plasmodium falciparum, 2µM, 24h preincubation with gametocytes, replicate R4, read-out: % inhibition male (individual replicates) R4
[21] = Plasmodium falciparum, 2µM, 24h preincubation with gametocytes, average of replicates, read-out: Average inhibition female (%)
[22] = Plasmodium falciparum, 2µM, 24h preincubation with gametocytes, replicate R1, read-out: % inhibition female (individual replicates) R1
[23] = Plasmodium falciparum, 2µM, 24h preincubation with gametocytes, replicate R2, read-out: % inhibition female (individual replicates) R2
[24] = Plasmodium falciparum, 2µM, 24h preincubation with gametocytes, replicate R3, read-out: % inhibition female (individual replicates) R3
[25] = Plasmodium falciparum, 2µM, 24h preincubation with gametocytes, replicate R4, read-out: % inhibition female (individual replicates) R4

| SMILES | Cytotox ratio Pf FGAA [1, 7] | IC50 [2] [nM] | Cytotox ratio Pf Male [3] | IC50 [3, 8] [nM] | FGAA TOX50 HepG2 (HepG2 cells [4]) [µM] | Cytotox ratio Pf Female [5] | Mean TOX (HepG2 cells [6]) [µM] | IC50 [5, 9] [nM] | Selectivity Ratio M [3] | Selectivity ratio F [5] | Tox50 (HepG2 cells [6]) [µM] | also measured |
| --- | --- | --- | --- | --- | --- | --- | --- | --- | --- | --- | --- | --- |
| Cc1ccc(C(C(=O)Nc2ccc(N3CCNCC3)c(Cl)c2)c2ccccc2)cc1 (stereo not drawn) [TC10] | 17.6 | 660 | 27.6 | 420 | 11.89 | 1.2 | 11.61 |  |  |  |  |  |
| CCc1cc2c(Sc3nnc(N)s3)ncnc2s1 [TC12] | 63.9 | 730 | 47.6 | 980 | 32.3 | 63.0 | 46.65 | 740 |  |  |  |  |
| FC(F)(F)c1ccc2[nH]c(-c3ccc(-c4ccc(CNCCN5CCNCC5)cc4)cc3)nc2c1.O=C(O)C(F)(F)F [TC40] | 10.7 | 1410 | 10.3 | 1460 | 16.43 | 2.5 | 15.09 | 6080 |  |  |  |  |
| O=C1Nc2ccccc2C1=NNC(=S)N1CCOCC1 [TC50] | 192.9 | 240 | 22.9 | 2020 |  | 26.0 | 46.30 | 1780 |  |  |  | DGFA Tox50 HepG2 (HepG2 cells [6]; HepG2 value reported with the DGFA screen): 46.3 µM |
| COc1cccc(C23NC(=Nc4nc5ccccc5[nH]4)NC2(c2cccc(OC)c2)NC(=Nc2nc4ccccc4[nH]2)N3)c1 (stereo not drawn) [TC54] | 406.2 | 90 | 19.8 | 1850 | 40.74 | 28.1 | 36.56 | 1300 |  |  |  |  |
| COc1ccc2nc(N=C3NC4(c5ccccc5)NC(=Nc5nc6ccc(OC)cc6[nH]5)NC4(c4ccccc4)N3)[nH]c2c1.O=C(O)C(F)(F)F (stereo not drawn) [TC55] | 401.0 | 120 | 41.5 | 1160 | 62.72 | 8.2 | 48.12 | 5840 |  |  |  |  |
| c1ccc(-c2nc(Nc3nc4ccccc4[nH]3)[nH]c2-c2ccccc2)cc1 [TC56] | 23.4 | 580 | 14.3 | 950 | 10.98 | 13.3 | 13.60 | 1020 |  |  |  |  |
| CC(C)(CN)c1nc(-c2ccc(Cl)c(O)c2)c(-c2ccncc2)[nH]1.Cl [TC61] |  | 940 |  | 910 | 2.16 |  | 7.15 | 270 |  |  |  | ODA TOX50 HepG2 (HepG2 cells [4]): 1.66 µM |
| CCN(CC)CCN(Cc1ccc(-c2ccc(C(F)(F)F)cc2)cc1)C(=O)Cn1cc(Cc2cnn(C)c2)c(=O)nc1/C=C/c1ccc(F)cc1.O=C(O)C(O)C(O)C(=O)O [TC64] | 12.5 | 1210 | 17.8 | 850 | 13.81 | 2.1 | 15.09 | 7160 |  |  |  |  |
| FC(F)(F)c1ccc2[nH]c(-c3ccc(-c4cccc(CNCCN5CCNCC5)c4)cc3)nc2c1.O=C(O)C(F)(F)F [TC77] | 9.6 | 1710 | 10.0 | 1640 | 12.31 | 3.2 | 16.43 | 5150 |  |  |  |  |
| CC(Nc1cc(-c2ccccn2)nc(-c2ccccn2)n1)c1ccccc1 (stereo not drawn) [TCMDC-125420] |  | 210 |  |  |  |  | 6.79 |  | 3.89 | 10.4 | 7.4 | Cytotox ratio Pf FGAA ([1]; human): 29.4; Cytotox ratio Pf Male ([3]; Mean TOX HepG2 over DGFA IC50 MALE, GREEN = >10-fold, RED = <10-fold): 3.6; inhibition at 2 µM ([3]; Plasmodium falciparum, PfDGFA at 2µM, 24h preincubation with gametocytes, average of replicates, read-out: Average inhibition male (%)): 78.7%; inhibition at 2 µM ([3]; Plasmodium falciparum, PfDGFA at 2µM, 24h preincubation with gametocytes, replicate R1, read-out: % inhibition male (individual replicates) R1): 74.1%; inhibition at 2 µM ([3]; Plasmodium falciparum, PfDGFA at 2µM, 24h preincubation with gametocytes, replicate R2, read-out: % inhibition male (individual replicates) R2): 77.3%; inhibition at 2 µM ([3]; Plasmodium falciparum, PfDGFA at 2µM, 24h preincubation with gametocytes, replicate R4, read-out: % inhibition male (individual replicates) R4): 84.5%; IC50 [3, 10]: 1900 nM; HitlevelM ([3]; 2µM): 3; FGAA TOX50 HepG2 (HepG2 cells [4]; HepG2 value reported with the FGAA screen, ref Miguel-Blanco et al 2017): 6.18 µM; Cytotox ratio Pf Female ([5]; Mean TOX HepG2 over DGFA IC50 FEM, GREEN = >10-fold, RED = <10-fold): 9.6; inhibition at 2 µM ([5]; Plasmodium falciparum, PfDGFA at 2µM, 24h preincubation with gametocytes, average of replicates, read-out: Average inhibition female (%)): 56%; inhibition at 2 µM ([5]; Plasmodium falciparum, PfDGFA at 2µM, 24h preincubation with gametocytes, replicate R1, read-out: % inhibition female (individual replicates) R1): 55.2%; inhibition at 2 µM ([5]; Plasmodium falciparum, PfDGFA at 2µM, 24h preincubation with gametocytes, replicate R2, read-out: % inhibition female (individual replicates) R2): 57.8%; inhibition at 2 µM ([5]; Plasmodium falciparum, PfDGFA at 2µM, 24h preincubation with gametocytes, replicate R3, read-out: % inhibition female (individual replicates) R3): 63%; inhibition at 2 µM ([5]; Plasmodium falciparum, PfDGFA at 2µM, 24h preincubation with gametocytes, replicate R4, read-out: % inhibition female (individual replicates) R4): 48%; IC50 [5, 11]: 710 nM; HitlevelF ([5]; 2µM): 3 |
| Cl.OC(CNCCCCCCNCC(O)c1ccc(Cl)c(Cl)c1)c1ccc(Cl)c(Cl)c1 (stereo not drawn) [TCMDC-141987] |  |  |  |  |  |  |  |  | 3.57 | 1.28 | 6.33 | Average inhibition male (%) [3, 12]: 88.7%; % inhibition male (individual replicates) R1 [3, 13]: 92.2%; % inhibition male (individual replicates) R3 [3, 14]: 63.5%; % inhibition male (individual replicates) R4 [3, 15]: 102.2%; IC50 ([3]; PfDGFA, 24 h incubation with gametocytes before induction, exflagellation readout, read-out: Male IC50): 1770 nM; HitlevelM ([3]; 2µM): 4; Average inhibition female (%) [5, 12]: 52.4%; % inhibition female (individual replicates) R1 [5, 13]: 44.0%; % inhibition female (individual replicates) R3 [5, 14]: 21.3%; % inhibition female (individual replicates) R4 [5, 15]: 69.1%; IC50 ([5]; PfDGFA, 24 h incubation with gametocytes before induction, female gamete readout, read-out: Female IC50): 4930 nM; HitlevelF ([5]; 2µM): 2 |
| O=c1c(Br)ccccc1Br [TCMDC-142246] |  |  |  |  |  |  |  |  | 47.29 | 63.16 | 6.95 | inhibition at 2 µM [3, 16]: 98.7%; inhibition at 2 µM [3, 17]: 98.2%; inhibition at 2 µM [3, 18]: 102%; inhibition at 2 µM [3, 19]: 94.6%; inhibition at 2 µM [3, 20]: 99.6%; IC50 [3, 10]: 150 nM; inhibition at 2 µM [5, 21]: 96.5%; inhibition at 2 µM [5, 22]: 93.6%; inhibition at 2 µM [5, 23]: 94.7%; inhibition at 2 µM [5, 24]: 103%; inhibition at 2 µM [5, 25]: 94.9%; IC50 [5, 11]: 110 nM |
| Nc1cc(C=Cc2ccc([N+](=O)[O-])o2)nc2ccccc12 [TCMDC-142295] |  |  |  |  |  |  |  |  | 16.74 | 6.49 | 2.6 | inhibition at 2 µM [3, 16]: 98.9%; inhibition at 2 µM [3, 17]: 98.2%; inhibition at 2 µM [3, 18]: 98.8%; inhibition at 2 µM [3, 19]: 98.4%; inhibition at 2 µM [3, 20]: 100%; IC50 [3, 10]: 160 nM; inhibition at 2 µM [5, 21]: 93.7%; inhibition at 2 µM [5, 22]: 96.4%; inhibition at 2 µM [5, 23]: 95.7%; inhibition at 2 µM [5, 24]: 93.8%; inhibition at 2 µM [5, 25]: 88.9%; IC50 [5, 11]: 400 nM |
| Nc1cc(C=Cc2ccc([N+](=O)[O-])s2)nc2ccccc12 [TCMDC-142296] |  |  |  |  |  |  |  |  | 5.37 | 1.71 | 1.76 | inhibition at 2 µM [3, 16]: 100%; inhibition at 2 µM [3, 17]: 99.9%; inhibition at 2 µM [3, 18]: 101%; inhibition at 2 µM [3, 19]: 97.4%; inhibition at 2 µM [3, 20]: 102%; IC50 [3, 10]: 330 nM; inhibition at 2 µM [5, 21]: 80.5%; inhibition at 2 µM [5, 22]: 71.6%; inhibition at 2 µM [5, 23]: 88.4%; inhibition at 2 µM [5, 24]: 72.1%; inhibition at 2 µM [5, 25]: 89.8%; IC50 [5, 11]: 1030 nM |
